{
  "source": "patent US6472213B1",
  "about": "“Shuttle vectors for the introduction of DNA into mycobacteria and utilization of such bacteria as vaccines” (Institut National de la Sante et de la Recherche Medicale …, priority 1994, dated 2002)",
  "assay_type_in_all_cases": "cell-based, M. smegmatis, M. bovis BCG, M. tuberculosis",
  "key": {"[1]": {"test_system": "mycobacteria carrying the plasmid pMR001"}, "[2]": {"test_system": "non-transformed control mycobacteria"}, "[3]": {"test_system": "pVN2-carrying mycobacteria"}},
  "data": [
    {"smiles": "[Cl][Hg][Cl]", "note": "[HgCl2]", "values": [
      {"measurement": "Phenotypes of resistance to mercury", "setting": "[1]", "value": "R"},
      {"measurement": "Phenotypes of resistance to mercury", "setting": "[2]", "value": "S"},
      {"measurement": "Phenotypes of resistance to mercury", "setting": "[3]", "value": "R"},
      {"measurement": "level of resistance", "setting": "[3]", "value": 40, "unit": "mg/mL"}
    ]}
  ]
}
